For assay [1], the system named is primary PGC-1α/β KO myotubes. Kind of assay: NMN with or without HIF stabilizing compounds in PGC-1α/β KO myotubes, qPCR of mitochondrially-encoded ETC genes. Type of assay: cell-based, mouse. On the procedure:
As a functional test of whether NMN reverses genome asynchrony by depleting cells of HIF-1α, primary PGC-1α/β KO myotubes were incubated with NMN in the presence and absence of the HIF stabilizing compounds DMOG and DFO. […] Primary myoblasts cells were isolated from WT, SIRT1 KO (Price et al., 2012) and PGC-1α/β KO (Zechner et al., 2010) mice as previously described (Price et al., 2012). WT and PGC-1α/β KO primary myoblasts were plated and allowed to differentiate into myotubes by replacing the media with low glucose DMEM supplemented with 2% horse serum (Sigma-Aldrich) for 4 days. After the differentiation the cells were infected with empty vector or flag-SIRT1 adenovirus as described before ([…] al., 2007). Media was replaced with fresh DMEM supplemented with 2% horse serum (Sigma-Aldrich) for an additional 48 hr and, after that the cells were harvested for the different assays as described. […] Quantitative RT-PCR reactions were performed using 1 μM of primers and LightCycler® 480 SYBR Green Master (Roche) on an LightCycler® 480 detection system (Roche). Calculations were performed by a comparative method (2-ΔCT) using 18S as an internal control. For mtDNA analysis, total DNA was extracted with DNeasy blood and tissue kit (Qiagen). mtDNA was amplified using primers specific for the mitochondrial cytochrome c oxidase subunit 2 (COX2) gene and normalized to genomic DNA by amplification of the ribosomal protein s18 (rps18) nuclear gene. Primers were designed using the IDT software (IDT) and the primer sequences can be found in Table 1.

A further assay deals with primary myoblasts. Kind of assay: NMN in primary myoblasts with NMNAT1 knockdown, qPCR of mitochondrial-encoded genes. It is filed as cell-based, mouse. To be noted: cells with knockdown of NMNAT1 versus nontargeting shRNA. An excerpt:
FIGS. 17A-17L reveal that increasing NAD+ levels rescues age-related mitochondrial and muscle dysfunction through a SIRT1-HIF-1α pathway. FIG. 17A depicts NAD+ levels in gastrocnemius of 3- and 24-month-old mice treated with either the vehicle (PBS) or NMN (n=5, *p<0.05 versus 3-month-old PBS animals, #p<0.05 versus 24-month-old PBS animals). FIG. 17B depicts ATP content in gastrocnemius of 6- and 22-month-old mice treated with either the vehicle (PBS) or NMN (n=6). FIG. 17C depicts expression of mitochondrial-encoded genes (ND1, Cytb, COX1 and ATP6) analyzed by qPCR in gastrocnemius of 6- and 22-month-old mice treated with either the vehicle (PBS) or NMN. Relative expression values were normalized to 6-months old PBS mice (n=6). […] FIG. 17F depicts expression of mitochondrial-encoded genes (ND1, Cytb, COX1 and ATP6) analyzed by qPCR in gastrocnemius of WT and Egln1 KO mice treated with either the vehicle (PBS) or NMN. […] FIG. 17H depicts expression of mitochondrial-enoded genes (ND1, Cytb, COX1 and ATP6) analyzed by qPCR in primary myoblasts WT cells infected with NMNAT1 or nontargeting shRNA treated with either the vehicle (PBS) or NMN. […] FIG. 17I depicts expression of mitochondrial-encoded genes (ND1, Cytb, COX1 and ATP6) analyzed by qPCR in gastrocnemius of WT and SIRT1 KO mice treated with either the vehicle (PBS) or NMN. […] Values are expressed as mean±SEM. […]
Background: Real-time PCR tracks product formation cycle by cycle.

The record followed here is US20200291100A1, “TREATMENT OF AGE-RELATED AND MITOCHONDRIAL DISEASES BY INHIBITION OF HIF-1 ALPHA FUNCTION” (President and Fellows of Harvard College, priority 2012, published 2020).

Molecules are shown by their SMILES.

Take `COC(=O)CNC(=O)C(=O)OC` [DMOG, dimethyloxaloylglycine]: in assay [1] (HIF stabilizing compound added to NMN-treated cells, 1 mM DMOG or 10 μM DFO, 12 hours), the “effect on NMN-induced expression of mitochondrially-encoded ETC genes” value is given as “completely abolished”. With `NC(=O)c1ccc[n+]([C@@H]2O[C@H](COP(=O)([O-])O)[C@@H](O)[C@H]2O)c1` [NMN, nicotinamide mononucleotide], the “ability of NMN to induce the expression of mitochondrial-encoded genes” value in the assay with primary myoblasts is “completely abolishes”. For the same compound, the “expression of mitochondrially-encoded ETC genes (ND1, CYTB, COX1, ATP6)” value in assay [1] (NMN alone, versus PBS) is recorded as “induced expression”.
